Data on five compounds can be found in US20230219969A1 (priority 2020, published 2023).

Assay [1] deals with 5HT2A. Type of assay: cell-based. Conditions: result in words.
The subject of the next assay is mice. The assay can be described thus: Head-twitch response (HTR) in mice. Conditions: hallucinogenic potential. It counts as in vivo.
The subject of assay [2] is Rat cortical neurons. The assay can be described thus: Neurite Outgrowth Assay (Procedure A). It counts as cell-based. As to conditions: 1 hour treatment at DIV 4, analyzed DIV 7. The source says: Neurite outgrowth assay. Changes in the pattern of neurite outgrowth have been implicated in neurodegenerative disorders as well as traumatic injuries. The discovery of new compounds that can positively affect neuritogenesis are important for developing new therapeutics for neurological diseases. Measurement of neurite outgrowth of rat cortical neurons using an automated image-based assay is used to determine the neuroplastic effects of the compounds provided herein. In some embodiments, a compound provided herein increases the pattern of neurite outgrowth. In some embodiments, a compound provided herein increases neurite average length compared to a control. In some embodiments, a compound provided herein increases neurite branch points compared to a control. In some embodiments, a compound provided herein increases neurite average length and neurite branch points compared to a control.
In some embodiments, the plastogenic potential of compounds provided herein is assessed by measuring the changes in neurite development. In some embodiments, the plastogenic potential (as measured by Neurite Outgrowth Procedure A) of the compounds is shown in Table 10.
Neurite Outgrowth Assay (Procedure A). Rat cortical neurons (20,000 cells/well) were freshly isolated from embryonic day 18 rats and cultured in Neurobasal Medium (+B27). The cultured cells were plated in 96 well-plates (avoiding external wells). At DIV 4, the neurons were treated with compound or control (10 μM) for 1 hour followed by complete washout of the compound. At DIV 7, the neurons were analyzed. The experiments were performed in triplicate. Neurite outgrowth was measured analyzing the following parameters: Number of Cell Bodies, total neurite length (pixels), Root Count, Segments, Extremities Count and node points. Changes in the pattern of neurite outgrowth of the neurons were analyzed by immunocytochemistry against […]. Pictures were acquired by the CellInsight CX7 from Thermo Fisher and analyzed using its software. Results generated in the equipment were maximum neurite length, extremity count, root count, dendrite branch points, and total neurite length. The results were compared the percent of DMSO control, representing the percentage of outgrowth compare to vehicle control in neuronal outgrowth.

Assay [3] deals with Rat cortical neurons. The assay can be described thus: Neurite Outgrowth in Primary Neuronal Cultures Assay (Procedure B). Type of assay: cell-based. Further details: key: A: Statistically significant mean increase as a percent of DMSO control at 10 μM or less; B: No statistically significant mean increase as a percent of DMSO control at 10 μM or less. Conditions: 72 h, percent of DMSO control at 10 μM or less. The text has this: Neurite Outgrowth in Primary Neuronal Cultures Assay (Procedure B). Changes in the pattern of neurite outgrowth have been implicated in psychiatric and neurodegenerative disorders as well as traumatic injuries. The discovery of new compounds that can positively affect neuritogenesis are important for developing new therapeutics for neurological diseases. Measurement of neurite outgrowth of rat cortical neurons using an automated image-based assay was used to determine the neuroplastic effects of the compounds of the present invention. The neurite outgrowth assay was performed at Neurofit SAS (France) as described below.
Pregnant Wistar rats (Janvier; France) were used for the study. They were delivered 6 days before their use. Upon arrival at Neurofit animal facility, they were housed one per cage and maintained in a room with controlled temperature (21-22° C.) and a reversed light-dark cycle (12 h/12 h; lights on: 17:30-05:30; lights off: 05:30-17:30) with food and water available ad libitum.
Female Wistar rats of 17 days gestation were killed by cervical dislocation and the fetuses were removed from the uterus. Their brains were placed in ice-cold medium of Leibovitz (L15, Gibco, Fisher bioblock, France). Cortices were dissected and meninges were carefully removed. The cortical neurons were dissociated by trypsinization for 30 min at 37° C. (trypsin-EDTA, Gibco) in presence of 0.1 mg/ml DNAse I (Roche, France). The reaction was stopped by addition of Dulbecco's Modified Eagle Medium (DMEM; Gibco) with 10% of fetal bovine serum (FBS; Gibco). The suspension was triturated with a 10-ml pipette and using a needle syringe 21G and centrifuged at 350×g for 10 min at room temperature. The pellet of dissociated cells was resuspended in a medium consisting of Neurobasal (Gibco) supplemented with 2% B27 supplement (Gibco), 0.5 mM L-Glutamine (Gibco), an antibiotic-antimicotic mixture. Viable cells were counted in a Neubauer cytometer using the trypan blue exclusion test (Sigma). Cells were seeded at a density of 10000 cells per well in 96-well plate (Costar) precoated with poly-L-lysine. Test compound at different concentrations were added to the cultures. Donepezil (positive control) was tested at 250 nM.
After 72 h (3 days) of plating, cultures were fixed with paraformaldehyde in PBS (4%, Sigma) for 30 min at 4° C. Then, cells were successively permeabilized with 0.1% Triton X100 for 30 min, saturated with PBS containing 3% of BSA and were incubated 1 h with anti-beta III tubulin antibody (Sigma) at 1/10 000 in PBS containing 0.5% of BSA. Cells were washed three times with PBS containing 0.5% of BSA, and they were incubated 1 h with goat anti-mouse antibody coupled with AF488 (Invitrogen A11001) diluted at 1/1000 in PBS containing 0.5% of BSA. Finally, nuclei were staining with DAPI 1 mg/ml at 1/1000 in PBS containing 0.5% of BSA. After rinsing with PBS, the plate was filmed and neurite networks were examined and analyzed using High-Content Screening (CellInsight, Thermo Scientific). The average number of neurites per neuron and the average total length of neurites per neuron were the main parameters analyzed. Analysis of data was performed using analysis of variance (ANOVA). The Fisher's Protected Least Significant Difference test was used for multiple comparisons. A p value<0.05 was considered significant. The software used is StatView 5.0 from SAS Institut.
In some embodiments, a compound of the present invention increases the pattern of neurite outgrowth. In some embodiments, a compound of the present invention increases neurite average length compared to a control. In some embodiments, a compound of the present invention increases neurite branch points compared to a control.

For assay [4], the target named is T1, 5HT2A (Homo sapiens, UniProt P28223). The experiment in a line: cell-based.
Experimental: Cell lines were expanded from freezer stocks according to standard procedures. Cells were seeded in a total volume of 20 μL into black-walled, clear-bottom, Poly-D-lysine coated 384-well microplates and incubated at 37° C. for the appropriate time prior to testing. Assays were performed in 1× Dye Loading Buffer consisting of 1× Dye, 1× Additive A and 2.5 mM Probenecid in HBSS/20 mM Hepes. Probenicid was prepared fresh. Cells were loaded with dye prior to testing. Media was aspirated from cells and replaced with 20 μL Dye Loading Buffer. Cells are incubated for 30-60 minutes at 37° C.
For agonist determination, cells were incubated with sample to induce response. After dye loading, cells were removed from the incubator and 10 μL HBSS/20 mM Hepes was added. […] Cells were incubated for 30 minutes at room temperature in the dark to equilibrate plate temperature. Intermediate dilution of sample stocks was performed to generate 4× sample in assay buffer. Compound agonist activity was measured on a FLIPR Tetra (MDS). Calcium mobilization is monitored for 2 minutes and 10 μL 4× sample in HBSS/20 mM Hepes was added to the cells 5 seconds into the assay.
Compound activity was analyzed using CBIS data analysis suite (ChemInnovation, CA). For agonist mode assays, percentage activity was calculated using the following formula:
% Activity=100%×(mean RFU of test sample−mean RFU of vehicle control)/(mean MAX RFU control ligand −mean RFU of vehicle control).
In assay [5] the target is T1, 5HT2A. The experiment in a line: Serotonin 5-HT2A in vitro cellular IPOne agonism assay. As to conditions: CHO-K1 cells, IPOne HTRF; read-out: 5-HT2A IPOne Agonism Activity. Type of assay: cell-based. Further details: host or cells: CHO-K1. In short, it runs like this: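 CHO-K1 cells expressing the receptor, plated overnight, then exposed to compound for 60 min at 37° C. IP1 accumulation read by HTRF (IP1-d2/anti-IP1 cryptate, 1 h at room temperature) as fluorescence ratio; EC50 derived.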
(TR-FRET usually uses a lanthanide donor and a delayed reading to cut background.)

The target in assay [6] is T1, 5HT2A. The experiment in a line: Serotonin 5-HT2A in vitro radioligand binding competition assay ([3H]-DOI). As to conditions: [3H]-DOI competition, membrane extracts; read-out: 5-HT2A Radioligand Binding Activity. Further details: purchased Epics Therapeutics S.A. (Belgium) FAST-0505B. In short, it runs like this: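 Competition binding against [3H]-DOI on membrane extracts, in duplicate; buffer, protein, radioligand level, time and temperature were receptor-optimized. Nonspecific binding defined with 200-fold excess cold competitor. Bound radioactivity counted by scintillation after filtration and washing.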

In assay [7] the test system is 5HT2A. Conditions: result in words.

Structures are written as SMILES. pEC50, pIC50: −log10 of the molar value.

T1 sequence (P28223 whole entry): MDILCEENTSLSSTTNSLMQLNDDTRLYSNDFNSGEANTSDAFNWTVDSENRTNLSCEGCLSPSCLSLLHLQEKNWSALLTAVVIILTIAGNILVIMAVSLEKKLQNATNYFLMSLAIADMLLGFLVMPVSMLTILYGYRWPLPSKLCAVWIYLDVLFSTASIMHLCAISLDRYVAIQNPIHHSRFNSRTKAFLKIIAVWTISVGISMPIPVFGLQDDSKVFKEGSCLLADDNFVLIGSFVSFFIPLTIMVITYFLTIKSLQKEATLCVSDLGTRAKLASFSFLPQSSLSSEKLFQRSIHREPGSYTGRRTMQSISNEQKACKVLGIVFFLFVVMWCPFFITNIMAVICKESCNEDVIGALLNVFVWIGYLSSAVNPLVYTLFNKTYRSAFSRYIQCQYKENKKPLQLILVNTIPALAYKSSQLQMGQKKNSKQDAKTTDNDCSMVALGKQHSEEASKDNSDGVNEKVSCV

`COc1ccc2[nH]cc(CCN(C)C)c2c1` [Example 5-MeO-DMT]: the “activation of 5HT2A sensor assay in agonist mode” value in the assay with 5HT2A [1] is reported as “activate the 5HT2A sensor assay in agonist mode”. In addition, the “head-twitch response (HTR)” value in the assay on mice was “produces a robust, dose-dependent head-twitch response”.

For `CN(C)CCn1ccc2cncnc21` [Example 6, N,N-dimethyl-2-(7H-pyrrolo[2,3-d]pyrimidin-7-yl)ethan-1-amine], in the assay with Rat cortical neurons [2], the “Neurite Average Length @ 10 μM” value is “A (>200% vehicle)” and the “Neurite Branch Points: @ 10 μM” value is reported as “A (>200% vehicle)”. For the same compound, in the assay with Rat cortical neurons [3], the “Increase in Neurite Length” value is recorded as “B” and the “Increase in Neurite Number” value was “B”. Moreover, at 5HT2A [4], the pEC50 was under 3.96. Besides, at 5HT2A [5], the pEC50 was under 5.00. Besides, the pIC50 at 5HT2A [6] was 5.00 to 6.00.

Take `COc1ccc2c(CCN(C)C)c[nH]c2c1` [Example 6-MeO-DMT]: the “activation of 5HT2A sensor assay in agonist mode” value in the assay on 5HT2A [1] is reported as “do not activate the 5HT2A sensor assay in agonist mode”. In the assay with mice, the “head-twitch response (HTR)” value is reported as “does not produce a HTR”. In addition, the “competition with 5-HT in 5HT2A sensor assay in antagonist mode” value with 5HT2A [7] is “compete off 5-HT”.

Regarding `CN(C)CCn1ccc2cnccc21` [Example 7, N,N-dimethyl-2-(1H-pyrrolo[3,2-c]pyridin-1-yl)ethan-1-amine], in the assay on Rat cortical neurons [2], the “Neurite Average Length @ 10 μM” value is “B (100%-200% vehicle)” and the “Neurite Branch Points: @ 10 μM” value is on record as “A (>200% vehicle)”. Moreover, in the assay on Rat cortical neurons [3], the “Increase in Neurite Length” value is on record as “A” and the “Increase in Neurite Number” value is recorded as “B”. The same compound gave a pEC50 at 5HT2A [4] of under 3.96. Further, at 5HT2A [5], the pEC50 is under 5.00. In addition, at 5HT2A [6], the pIC50 is under 5.00.

For the compound `COc1ccc2c(c1)CCN2CCN(C)C` [Example 8, 2-(5-methoxyindolin-1-yl)-N,N-dimethylethan-1-amine], in the assay on Rat cortical neurons [2], the “Neurite Average Length @ 10 μM” value is “B (100%-200% vehicle)” and the “Neurite Branch Points: @ 10 μM” value is given as “A (>200% vehicle)”. Also, in the assay with Rat cortical neurons [3], the “Increase in Neurite Length” value is “A” and the “Increase in Neurite Number” value is reported as “B”. Also, on 5HT2A [4], the pEC50 is under 3.96. Besides, the pEC50 on 5HT2A [5] is under 5.00. Further, the pIC50 on 5HT2A [6] was under 5.00.
